Reference: patent publication US20080070952A1, “Inhibition or Treatment of Dyskinesia” (PROXIMAGEN LTD.,, priority 2005, published 2008)

System: L-DOPA primed MPTP treated animals (common marmosets)
Assay: L-DOPA induced motor activity, motor disability and dyskinesia (chorea, dystonia) in L-DOPA primed MPTP treated marmosets
Type: in vivo, Callithrix Jacchus
Conditions: same protocol as Examples 1-8; NOS inhibitors s.c., Vinyl L-NIO 6 mg/kg, 7-NI 20 mg/kg, L-NIO dose not given
Procedure: In the following procedure, all NOS inhibitors (nNOSi) were administered subcutaneously. All other drugs with the exception of 7-nitroindazole were dissolved in deionised water or for oral administration dissolved in deionised water containing 10% sucrose and were administered orally. 7-nitroindazole was dissolved in a 30:70 v/v in water and DMSO. In experiments using ropinirole, animals were pre-treated with a single oral dose of domperidone (5 mg·kg^−1) as an anti-emetic, 30 min before. Carbidopa and domperidone were given as suspension in deionised water and 10% sucrose.
Adult common marmosets of either sex (Callithrix Jacchus; n=6), weighing between 310 to 380 g were used in this study. Marmosets were housed either in pairs or individually at a temperature of 25±1_ C with 50% relative humidity on a 12-hour light-dark cycle. Animals were fed once daily on a diet of fresh fruit, nuts, Mazuri food pellets, and a supplement of vitamin D3 and had free access to water. On experimental days, the animals were fed following completion of behavioural testing.
Marmosets were treated with 1-methyl-4-phenyl-1,2,3,6-tetrahydropyridine hydrochloride (2.0 mg·kg^−1 subcutaneously; MPTP-HCl; Research Biochemicals International; dissolved in 0.9% sterile saline) daily for 5 consecutive days. This treatment regimen induces a persistent and stable syndrome of akinesia, bradykinesia, rigidity, postural abnormality, incoordination and postural tremor (Jenner and Marsden, 1986; Pearce et al., 1995). Animals were hand fed on a cocktail of Mazuri marmoset jelly, dried milk and pureed bananas until body weight had returned towards pre-treatment levels.
Eight weeks following MPTP-treatment, all animals (n=6) were treated for 30 to 40 days with 12.5 mg·kg^−1 L-DOPA methyl ester (Sigma) plus 12.5 mg·kg^−1 carbidopa (Merck Sharp & Dohme) by oral gavage on a daily basis. Carbidopa was administered 30 to 45 min prior to L-DOPA treatment (Pearce et al., 1995). When animals became dyskinetic, daily dosing with a combination of L-DOPA/carbidopa was changed to a once a week treatment. At this point and on, once a week L-DOPA/carbidopa treatment produced similar level of dyskinesia to that produced at the end of the daily priming period. […]
Motor Activity: Motor activity was measured in test cages equipped with an array of 8 infra red photo sensors (perspex fronted aluminium cages, 50×60×70 cm), The number of beam interruptions due to movement was counted and summed in bins of 10 minute interval using an analogue to digital converter attached to an Intel-based PC. Motor activity was measured over a period of 6 hours and expressed both as time course measuring the number of beam interruption occurring in 10 min time segments, or as the total number of beam interruptions over the test period. […]

Row | Structure (SMILES) | L-Dopa induced dyskinesia
1 | N=C(N)SCCc1cccc(CCSC(=N)N)c1 [1,3 PB-ITU, S,S′-1,3-Phenylene-bis(1,2-ethanediyl)-bis-isothiourea] | did not reduce
2 | O=[N+]([O-])c1cccc2cn[nH]c12 [7-NI, 7-nitroindazole] | reduced
3 | N=C(N)SCCN [S-(2-aminoethyl)-ITU, S-(2-aminoethyl)-isothiourea] | did not reduce
4 | C=CCC(=N)NCCC[C@H](N)C(=O)O [Vinyl L-NIO, L-N5-(1-imino-3-butenyl)-ornithine] | reduced
